According to patent US20110104821A1, “ABeta-OLIGOMER MEASUREMENT METHOD” (priority 2008, published 2011):

Biological target: high molecular oligomer Aβ (Aβ1-42) (Homo sapiens, UniProt P05067)
Assay: Influence of test compound on Aβ oligomer formation, measured by BAN50a / HRP-labeled BAN50a ELISA
Assay type: biochemical
Conditions: Curcumin with various concentrations added to Aβ42 solutions; incubated at 4° C. for a whole day and night; ELISA of Example 1
Protocol: ELISA using BAN50a and HRP labeled BAN50a (quantification of oligomer Aβ) was performed by the following steps.
(1) BAN50a antibody was dissolved in coating buffer A to a concentration of 10 μg/ml (75 μl/well), added to an EIA96 well plate (high maximum binding clear plate, Greiner), and incubated in a refrigerating room (about 4° C.) for a whole day and night. (2) After washing 3 times with PBS (calcium, magnesium-free; hereinafter sometimes to be abbreviated as PBS(−)), blocking buffer B was added to 100 μL/well and the plate was stored. (3) On the day of experiment, blocking buffer B was discarded and the plate was washed twice with PBS(−), and 25 μl of buffer C was added. […] (5) The sample was incubated in a refrigerating room (about 4° C.) for a whole day and night. (6) The plate was washed 4 times with PBS(−). […] (11) Thereafter, 1 M phosphoric acid solution (75 μl/well) was added to the reacted substrate solution to terminate the reaction, and OD450 was measured by a multi-label counter (PerkinElmer). […]
(3) The tube was incubated at 4° C. for a whole day and night. (4) The reaction mixture was diluted 100-fold with buffer C (mentioned above), and measured by the aforementioned ELISA. (5) The inhibitory rate was calculated with that of the vehicle group as 100%. […]

Sequence of high molecular oligomer Aβ (Aβ1-42) (P05067 672-713): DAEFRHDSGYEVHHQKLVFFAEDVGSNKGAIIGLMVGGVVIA

COc1cc(/C=C/C(=O)CC(=O)/C=C/c2ccc(O)c(OC)c2)ccc1O [curcumin]
signal of oligomer Aβ (inhibition of formation of high molecular oligomer Aβ): specifically decreased
